Experimental data reported in the supplement of paper PMC10307832.

Key:
Assay in all cases: relative viability (nuclei count vs DMSO), 5 days (fraction); higher = more cells survive
[1] = compound: O=C(Nc1cccc(C(F)(F)F)c1)Nc1cc(S(=O)(=O)NC2CC2)ccc1-c1ccsc1 [AGI-6780] + Cc1nc(Nc2ncc(C(=O)Nc3c(C)cccc3Cl)s2)cc(N2CCN(CCO)CC2)n1 [Dasatinib] (partner 0.075 µM)
Outline: (§1)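 Relative viability equals treated-well nuclei counts divided by vehicle-well nuclei counts. Counts came from 4× images of lung cancer cell lines grown in 1536-well plates for 5 days after pin-tool dosing on the day after seeding. Dosing used one drug alone or a fixed anchor-drug dose plus five library-drug doses (not always all listed) in √10 steps, and values are medians of duplicate plates.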

[2] = compound: O=C(Nc1cccc(C(F)(F)F)c1)Nc1cc(S(=O)(=O)NC2CC2)ccc1-c1ccsc1 [AGI-6780] + CC(=O)c1c(C)c2cnc(Nc3ccc(N4CCNCC4)cn3)nc2n(C2CCCC2)c1=O [Palbociclib] (partner 0.5 µM)
Outline: as §1

[3] = compound: O=C(Nc1cccc(C(F)(F)F)c1)Nc1cc(S(=O)(=O)NC2CC2)ccc1-c1ccsc1 [AGI-6780] + CC(C)C[C@H](NC(=O)[C@H](Cc1ccccc1)NC(=O)c1cnccn1)B(O)O [Bortezomib] (partner 0.002 µM)
Outline: as §1

[4] = compound: O=C(Nc1cccc(C(F)(F)F)c1)Nc1cc(S(=O)(=O)NC2CC2)ccc1-c1ccsc1 [AGI-6780] + CCNC(=O)c1noc(-c2cc(C(C)C)c(O)cc2O)c1-c1ccc(CN2CCOCC2)cc1 [Luminespib] (partner 0.01 µM)
Outline: as §1

| Cell Line | relative viability ([1]; first compound 0.08 µM) | relative viability ([1]; first compound 0.253 µM) | relative viability ([1]; first compound 0.8 µM) | relative viability ([1]; first compound 2.53 µM) | relative viability ([1]; first compound 8 µM) | relative viability ([2]; first compound 0.08 µM) | relative viability ([2]; first compound 0.253 µM) | relative viability ([2]; first compound 0.8 µM) | relative viability ([2]; first compound 2.53 µM) | relative viability ([2]; first compound 8 µM) | relative viability ([3]; first compound 0.08 µM) | relative viability ([3]; first compound 0.253 µM) | relative viability ([3]; first compound 0.8 µM) | relative viability ([3]; first compound 2.53 µM) | relative viability ([3]; first compound 8 µM) | relative viability ([4]; first compound 0.08 µM) | relative viability ([4]; first compound 0.253 µM) | relative viability ([4]; first compound 0.8 µM) | relative viability ([4]; first compound 2.53 µM) | relative viability ([4]; first compound 8 µM) |
| --- | --- | --- | --- | --- | --- | --- | --- | --- | --- | --- | --- | --- | --- | --- | --- | --- | --- | --- | --- | --- |
| COR-L 105 | 0.345 | 0.349 | 0.397 | 0.369 | 0.378 | 0.395 | 0.301 | 0.417 | 0.371 | 0.37 | 0.886 | 0.896 | 0.993 | 0.766 | 0.813 | 0.81 | 0.654 | 0.725 | 0.618 | 0.535 |
| H3255 | 0.349 | 0.374 | 0.456 | 0.353 | 0.333 | 0.292 | 0.304 | 0.307 | 0.315 | 0.31 | 0.572 | 0.739 | 0.836 | 0.69 | 0.865 | 0.808 | 0.925 | 0.905 | 0.852 | 0.949 |
| LCLC-97TM1 | 0.881 | 0.887 | 0.868 | 0.654 | 0.817 | 0.197 | 0.223 | 0.235 | 0.212 | 0.207 | 0.867 | 0.78 | 0.871 | 0.528 | 0.68 | 0.814 | 0.703 | 0.876 | 0.71 | 0.714 |
| NCI-H3122 | 0.86 | 0.904 | 0.911 | 0.669 | 0.955 | 0.217 | 0.148 | 0.172 | 0.178 | 0.217 | 1.11 | 1 | 1.05 | 1.05 | 0.999 | 0.0953 | 0.0902 | 0.113 | 0.0851 | 0.0997 |
| SK-LU-1 | 0.172 | 0.183 |  | 0.135 | 0.17 | 0.422 | 0.411 | 0.284 | 0.409 | 0.39 | 1.25 | 1.45 | 0.965 | 1.12 | 1.4 | 0.22 | 0.192 |  | 0.199 | 0.224 |
| HCC-15 | 0.732 | 0.636 | 0.736 | 0.437 | 0.621 | 0.787 | 0.649 | 0.689 | 0.718 | 0.728 | 1.1 | 0.993 | 1.06 | 1.04 | 1.02 | 0.407 | 0.247 | 0.274 | 0.38 | 0.3 |
| NCI-H1650 | 0.337 | 0.371 | 0.38 | 0.274 | 0.366 | 0.297 | 0.456 | 0.447 | 0.442 | 0.432 | 0.181 | 0.196 | 0.216 | 0.206 | 0.183 | 0.187 | 0.203 | 0.219 | 0.228 | 0.191 |
| NCI-H2228 | 0.528 | 0.555 | 0.468 | 0.381 | 0.545 | 0.726 | 0.961 | 0.631 | 0.667 | 0.766 | 1.11 | 1.07 | 0.811 | 0.896 | 0.886 | 0.128 | 0.15 | 0.148 | 0.114 | 0.113 |
| NCI-H520 | 0.197 | 0.185 | 0.216 | 0.177 | 0.194 | 0.208 | 0.25 | 0.232 | 0.235 | 0.207 | 0.577 | 0.661 | 0.63 | 0.697 | 0.779 | 0.23 | 0.255 | 0.234 | 0.178 | 0.231 |
| NCI-H2023 | 0.591 | 0.624 | 0.617 | 0.507 | 0.529 | 0.394 | 0.372 | 0.421 | 0.357 | 0.4 | 0.994 | 1.1 | 1.09 | 0.92 | 1.06 | 0.877 | 0.688 | 0.602 | 0.553 | 0.686 |
